According to patent publication US20010006673A1, “LUTEIN- CONTAINING SUPPLEMENT AND PROCESS FOR ENHANCING IMMUNE RESPONSE IN ANIMALS” (priority 1998, published 2001):

Assays:
[1] = Body weight and food intake of cats fed lutein; assay type: in vivo, Tabby cats
Method: Fifty-six female Tabby cats (10 months old) were randomly assigned to be fed 0, 1, 5, or 10 mg lutein daily for 12 weeks. The lutein contained 76.66% lutein and 5.23% zeaxanthin and was incorporated into the basal diet (see Table 3) to a final concentration of 250 mg lutein/kg of diet.
Prior to being fed to the cats, the lutein-containing diet was mixed with additional basal diet to achieve the desired lutein concentration. The final diets were mixed weekly and stored at −20° C. in sealed containers undernitrogen gas. […] Food and water were available ad libitum. Cats were housed (7 cats/pen; 1.5×5.0 m) in a temperature (20 to 22° C.) and light (14 h light) controlled facility.

[2] = system: Canine thyroid adenocarcinoma cells; experiment: NK cell cytotoxicity, dogs; assay type: in vivo, Beagle dogs
Method: Canine thyroid adenocarcinoma cells were used as target cells in assessing NK cell cytotoxic activity. This cell line was previously shown to be susceptible to killing by canine NK cell. Target cells were cultured in a T75 flask with 20 mL minimum essential medium (MEM; Sigma Chem. Co., St. Louis, Mo.) supplemented with 10% fetal calf serum (FC S), 100 U/mL of penicillin and 100 μg/mL of streptomycin. When confluent, target cells were trypsinized, washed 3 times and resuspended to 5×10^5 cells/mL in complete medium (RPMI-1640+10% FCS+100 U/mL of penicillin+100 μ/mL of streptomycin). Triplicate 100 μL aliquots of the target cells were pipetted into 96-well U-bottom plates (Costar, Cambridge, Mass.) and incubated for 8 hours to allow cell adherence. Lymphocytes (effector cells; 100 μL) isolated by percoll separation (as described above) were then added to the target cells to provide an effector:target cell (E:T) ratio of 10:1. After 10 hours of incubation at 37° C., 20 μl of a substrate containing 5 μg of 3-(4,5-dimethylthiazol-2-yl)-2,5-diphenyltetrazolium bromide (MTT) was added. […] Optical density was measured at 570 nm using a microplate reader. The percentage of NK cell-specific lysis was calculated as follows: Specific cytotoxicity (%)=100×{1−[(OD of target cells and effector cells−OD of effector cells)/(OD of target cells)]}

IgG = experiment: Serum IgG by single radial immunodiffusion, cats; assay type: in vivo, Tabby cats
Method: Serum IgG concentration was determined by single radial immunodiffusion (SRID). Goat antiserum to cat IgG (15%, whole molecule) (Sigma, St. Louis, Mo.) was incorporated into agarose (10 g/L in PBS; Sigma, St. Louis, Mo.). The loading volume for the test serum and standard was 5 μL and the plates were incubated for 24 hours in a humidified chamber. Ring diameters were measured using a SRID reader (Transidyne General Corp., Ann Arbor, Mich.).

[3] = system: Crandell feline kidney fibroblast; experiment: NK cytotoxicity assay, cats; assay type: in vivo, Tabby cats
Method: The Crandell feline kidney fibroblast was used as the target cell. Target cells were resuspended to 2×10^5 cells/mL and triplicate 100 μL aliquots were pipetted into a 96-well U-bottom plate (Costar, Cambridge, Mass.) and cells allowed to adhere. Isolated PBMC (effector cells) were then added to the target cells to achieve effector:target cell (E:T) ratios of 25:1, 12.5:1 and 6.25:1. The cell mixture was incubated for 8 hours after which 100 μL Rose Bengal (2.5 g/L in PBS; Sigma, St. Louis, Mo.) were added and incubated at room temperature for 5 minutes. Optical density was measured at 550 nm using an ELISA plate reader. The percentage of NK-specific lysis was calculated as follows:
Specific cytotoxicity (%)=100×{1−[(OD of target cells and effector cells−OD of effector cells)/(OD of target cells)]}

IL-2 = IL-2 production in Con A-stimulated whole blood cultures, cats; assay type: in vivo, Tabby cats
Method: Whole blood was diluted 1:2 in RPMI-1640 complete medium and cultured for 48 hours in the presence of 5 μg/mL Con A. The conditioned medium was removed and frozen at −80° C. The IL-2 concentrations were determined in duplicate by ELISA using a human IL-2 kit (Intergen, Purchase, N.Y). The human anti-IL-2 was previously determined to cross-react with feline IL-2.

[4] = system: peripheral blood mononuclear cells (PBMC); experiment: Peripheral blood mononuclear cell proliferation, whole blood, cats; assay type: in vivo, Tabby cats
Method: Whole blood was used to analyze the mitogenic proliferative responsiveness of peripheral blood mononuclear cells (PBMC) to phytohemagglutinin (PHA), Con A and pokeweed mitogen (PWM) in order to mimic in vivo conditions. Heparinized whole blood was diluted 1:12 with RPMI-1640 containing 25 mM of Hepes, penicillin (100 U/mL) and streptomycin (100 μg/mL) (Sigma, St. Louis, Mo.) (hereafter termed complete medium). […] The mitogens were used at the following final concentrations previously determined to provide both maximal (the higher mitogen concentration) and suboptimal (the lower mitogen concentration) proliferation: PHA (1.25 and 0.25 μg/mL), Con A (2.5 and 0.5 μg/mL) or PWM (0.125 and 0.025 μg/mL). Tritiated thymidine uptake was measured by liquid scintillation and PBMC proliferation response was expressed as cpm of stimulated cultures corrected for cpm of unstimulated cultures.

[5] = system: malondialdehyde (MDA) production; experiment: Lipid peroxidation (TBARS) assay, dog plasma; assay type: in vivo, Beagle dogs; conditions: dogs
Method: Plasma lipid peroxidation activity was determined by measuring malondialdehyde (MDA) production. The standard used was 1,1,3,3-tetramethoxypropane JMP) (Sigma Chem. Co., St. Louis, Mo.). Duplicate 500 μL plasma samples were pipetted into 15 ml, glass tubes and 3 mL of 10 g/L phosphoric acid and 1 ml of 6 g/L TBA solution were added. The mixture was boiled in a water bath for 45 minutes. Tubes were allowed to cool and the TBA-MDA complex was extracted with 4 ml of n-butanol. The butanol layer was separated by centrifugation at 1,000×g for 10 minutes and absorbance was measured on at 532 nm (Beckman, Fullerton, Calif.). The TBARS activity was expressed in nmole MDA/L plasma.

**Q.** For `CC1=C[C@H](O)CC(C)(C)[C@H]1/C=C/C(C)=C/C=C/C(C)=C/C=C/C=C(C)/C=C/C=C(C)/C=C/C1=C(C)C[C@@H](O)CC1(C)C` [lutein], which “Food intake among treatments” value [1] is on record?
**A.** The value was “not significantly different”.

**Q.** What about the Body weight average ([1]; across all diets and periods) of the same compound?
**A.** The Body weight average was 1.41 ± 0.04 kg.

**Q.** What about the “Average daily food intake” value ([1]; across the study period) of the same compound?
**A.** Its value is 83.2 g.

**Q.** What about the “Effect on changes in body weight” value ([1]; during the experimental period) of the same compound?
**A.** Its value is “did not significantly affect”.

**Q.** And the “Effect on NK cell cytotoxic activity” value [2]?
**A.** The value was “did not significantly influence”.

**Q.** And the “Specific lysis of target cells by PBMC, average” value ([2]; across all treatments and sampling periods, E:T 10:1)?
**A.** The value was 49.1±1.1%.

**Q.** What about the “Plasma IgG vs unsupplemented animals” value (IgG; cats fed 10 mg lutein, week 12) of the same compound?
**A.** Its value is “significantly higher”.

**Q.** What about the “Concentrations of plasma IgG” value (IgG; cats fed 1 or 10 mg lutein, week 8) of the same compound?
**A.** Its value is “significantly higher”.

**Q.** And the NK cell cytotoxicity ([3]; cats fed 1 mg lutein, week 12 (E:T of 6.25:1) and 8 (E:T of 25:1))?
**A.** Its NK cell cytotoxicity is “significantly higher”.

**Q.** What about the “NK cell cytotoxic activity” value ([3]; cats fed 10 mg lutein, week 8, significant with E:T ratios of 6.25:1 and 25:1) of the same compound?
**A.** Its value is “higher”.

**Q.** And the NK cell cytotoxicity ([3]; cats, E:T ratio of 12.5:1)?
**A.** Its NK cell cytotoxicity is “No significant treatment differences”.

**Q.** What about the IL-2 production (IL-2; throughout the experimental period) of the same compound?
**A.** Its IL-2 production is “no significant differences”.

**Q.** What about the “Average concentration of IL-2 in Con A-stimulated cultures” value (IL-2; throughout the study) of the same compound?
**A.** Its value is 15.1 ± 0.79 ng/mL.

**Q.** And the “Spontaneous proliferation by unstimulated PBMC” value ([4]; cats)?
**A.** The value was “did not significantly influence”.

**Q.** And the “PWM-stimulated PBMC proliferation (increased)” value ([4]; cats fed 1 mg lutein, week 4, 0.025 μg/mL PWM)?
**A.** The value was “differences were significant”.

**Q.** And the “PBMC proliferative response to Con A” value ([4]; cats fed 10 mg lutein, Con A 2.5 μg/mL, week 4)?
**A.** The value was “significantly higher”.

**Q.** And the “PWM-stimulated PBMC proliferation (increased)” value ([4]; cats fed 1 and 10 mg lutein, week 4, 0.125 μg/mL PWM)?
**A.** The value was “differences were significant”.

**Q.** And the “Tritiated thymidine uptake, average” value ([4]; cats, 0.25 μg/mL PHA)?
**A.** The value was 1,934±147 cpm.

**Q.** And the “Tritiated thymidine uptake, average” value ([4]; cats, 1.25 μg/mL PHA)?
**A.** The value was 6,464±504 cpm.

**Q.** And the “PBMC proliferative response to Con A” value ([4]; cats, Con A 2.5 μg/mL, week 8 and 12)?
**A.** Its value is “treatment differences were not observed”.

**Q.** What about the “PBMC proliferative response to Con A” value ([4]; cats, suboptimal dose (0.5 μg/mL) of Con A) of the same compound?
**A.** The value was “No significant treatment difference”.

**Q.** What about the “PHA-induced PBMC proliferation” value ([4]; cats, throughout the study) of the same compound?
**A.** Its value is “no significant dietary effects”.

**Q.** And the “Spontaneous proliferation by unstimulated PBMC, average” value ([4]; cats, throughout the study)?
**A.** The value was 1,744±147 cpm.

**Q.** And the “Effect on plasma TBARS activity” value [5]?
**A.** The value was “did not significantly affect”.

**Q.** What about the “Plasma TBARS activity, average” value ([5]; across all treatments and periods) of the same compound?
**A.** Its value is 95.8±0.1 nmol MDA/L.
